This note sets out measurements from patent US8829007B2 (priority 2009, dated 2014).

The term EC50 denotes the concentration giving half of the maximal effect. The term IC50 denotes the concentration needed to halve the response being measured.

Each structure is given as a SMILES string. Where two headings read alike, the source gives them in different places. A value given as a limit tells only on which side of the number the result lay.

The subject of assay [1] is A/PR/8/34 influenza virus. The assay can be described thus: microbe, parasite or virus in culture. Format: cell-based.
Assay [2] deals with influenza A virus (A/PR/8/34). The assay can be described thus: microbe, parasite or virus in culture. Format: cell-based. The settings on record: Influenza A virus, PR/8, MDCK, read-out: IC50 (mean all).
The mark [3] stands for this setting: Influenza A virus, PR/8, MDCK, MDCK cells infected with A/PR/8/34, bDNA viral RNA; read-out: EC50 (mean all).
Where [4] appears, read: MDCK cells infected with A/PR/8/34, cell protection (CPE).
Setting [5] is: Influenza A virus, PR/8, MDCK, read-out: EC50 (mean all).
Setting [6] is: Influenza A virus, PR/8, MDCK; read-out: EC50 (mean all).

As to `C=CCNC(=O)N1CCC[C@@H](CNc2nc(-c3c[nH]c4ncc(Cl)cc34)ncc2F)C1` [Compound 39, (S)—N-allyl-3-((2-(5-chloro-1H-pyrrolo[2,3-b]pyridin-3-yl)-5-fluoropyrimidin-4-ylamino)methyl)piperidine-1-carboxamide], the 50% effective concentration (EC50) in assay [1] (setting [3]) is under 5 µM. Further, the IC50 in assay [2] (setting [4]) was under 5 µM.
In the case of `CC=CC(=O)N1CCC[C@@H](CNc2nc(-c3c[nH]c4ncc(Cl)cc34)ncc2F)C1` [Compound 41, (S)-1-(3-((2-(5-chloro-1H-pyrrolo[2,3-b]pyridin-3-yl)-5-fluoropyrimidin-4-ylamino)methyl)piperidin-1-yl)but-2-en-1-one], in assay [1] (setting [5]), the EC50 was under 5 µM. In addition, the IC50 in assay [2] was under 5 µM.
As for `O=C(CC(F)(F)F)N1CCC[C@@H](CNc2nc(-c3c[nH]c4ncc(Cl)cc34)ncc2F)C1` [Compound 44, (S)-1-(3-((2-(5-chloro-1H-pyrrolo[2,3-b]pyridin-3-yl)-5-fluoropyrimidin-4-ylamino)methyl)piperidin-1-yl)-3,3,3-trifluoropropan-1-one], the EC50 in assay [1] (setting [3]) was under 5 µM. Further, the IC50 in assay [2] (setting [4]) was under 5 µM.
As to `COCC(=O)N1CCC[C@@H](CNc2nc(-c3c[nH]c4ncc(Cl)cc34)ncc2F)C1` [Compound 45, (S)-1-(3-((2-(5-chloro-1H-pyrrolo[2,3-b]pyridin-3-yl)-5-fluoropyrimidin-4-ylamino)methyl)piperidin-1-yl)-2-methoxyethanone], the EC50 in assay [1] (setting [3]) is under 5 µM. Moreover, the IC50 in assay [2] (setting [4]) was under 5 µM.
Consider `O=C(Cc1cccnc1)N1CCC[C@@H](CNc2nc(-c3c[nH]c4ncc(Cl)cc34)ncc2F)C1` [Compound 47, (S)-1-(3-((2-(5-chloro-1H-pyrrolo[2,3-b]pyridin-3-yl)-5-fluoropyrimidin-4-ylamino)methyl)piperidin-1-yl)-2-(pyridin-3-yl)ethanone], for which the EC50 in assay [1] (setting [3]) was under 5 µM. In addition, the IC50 in assay [2] (setting [4]) is under 5 µM.
`C=CCC(=O)N1CCC[C@@H](CNc2nc(-c3c[nH]c4ncc(Cl)cc34)ncc2F)C1` [Compound 49, (S)-1-(3-((2-(5-chloro-1H-pyrrolo[2,3-b]pyridin-3-yl)-5-fluoropyrimidin-4-ylamino)methyl)piperidin-1-yl)but-3-en-1-one]: the EC50 in assay [1] (setting [3]) is under 5 µM. In assay [2] (setting [4]), the IC50 is under 5 µM.
In the case of `O=C1CC[C@H](C(=O)N2CCC[C@@H](CNc3nc(-c4c[nH]c5ncc(Cl)cc45)ncc3F)C2)O1` [Compound 51, (R)-5-((S)-3-((2-(5-chloro-1H-pyrrolo[2,3-b]pyridin-3-yl)-5-fluoropyrimidin-4-ylamino)methyl)piperidine-1-carbonyl)dihydrofuran-2(3H)-one], the EC50 in assay [1] (setting [3]) was under 5 µM. The IC50 in assay [2] (setting [4]) was under 5 µM.
For `C#CCCC(=O)N1CCC[C@@H](CNc2nc(-c3c[nH]c4ncc(Cl)cc34)ncc2F)C1` [Compound 52, (S)-1-(3-((2-(5-chloro-1H-pyrrolo[2,3-b]pyridin-3-yl)-5-fluoropyrimidin-4-ylamino)methyl)piperidin-1-yl)pent-4-yn-1-one], the concentration giving a half-maximal response (EC50) in assay [1] (setting [3]) was under 5 µM. Besides, the IC50 in assay [2] (setting [4]) is under 5 µM.
Regarding `O=C(O)[C@H]1CC[C@@H](C(=O)N2CCC[C@H](CNc3nc(-c4c[nH]c5ncc(Cl)cc45)ncc3F)C2)C1` [Compound 55, (1S,3R)-3-((R)-3-((2-(5-chloro-1H-pyrrolo[2,3-b]pyridin-3-yl)-5-fluoropyrimidin-4-ylamino)methyl)piperidine-1-carbonyl)cyclopentanecarboxylic acid], the EC50 in assay [1] (setting [3]) was under 5 µM. Further, the IC50 in assay [2] (setting [4]) was under 5 µM.
Regarding `O=C(Cc1ccccc1)N1CCC[C@H](CNc2nc(-c3c[nH]c4ncc(Cl)cc34)ncc2F)C1` [Compound 56, (R)-1-(3-((2-(5-chloro-1H-pyrrolo[2,3-b]pyridin-3-yl)-5-fluoropyrimidin-4-ylamino)methyl)piperidin-1-yl)-2-phenylethanone], the EC50 in assay [1] (setting [3]) was under 5 µM. Further, the IC50 in assay [2] (setting [4]) was under 5 µM.
With `CC(C)=CC(=O)N1CCC[C@H](CNc2nc(-c3c[nH]c4ncc(Cl)cc34)ncc2F)C1` [Compound 57, (R)-1-(3-((2-(5-chloro-1H-pyrrolo[2,3-b]pyridin-3-yl)-5-fluoropyrimidin-4-ylamino)methyl)piperidin-1-yl)-3-methylbut-2-en-1-one], the concentration giving a half-maximal response (EC50) in assay [1] (setting [5]) was under 5 µM. In addition, the IC50 in assay [2] was under 5 µM.
For `O=S(=O)(/C=C/c1ccccc1)N1CCC[C@H](CNc2nc(-c3c[nH]c4ncc(Cl)cc34)ncc2F)C1` [Compound 60, (R,E)-2-(5-chloro-1H-pyrrolo[2,3-b]pyridin-3-yl)-5-fluoro-N-((1-(styrylsulfonyl)piperidin-3-yl)methyl)pyrimidin-4-amine], the EC50 in assay [1] (setting [3]) is under 5 µM. Moreover, the IC50 in assay [2] (setting [4]) is under 5 µM.
In the case of `O=S(=O)(C1CC1)N1CCC[C@H](CNc2nc(-c3c[nH]c4ncc(Cl)cc34)ncc2F)C1` [Compound 61, (R)-2-(5-chloro-1H-pyrrolo[2,3-b]pyridin-3-yl)-N-((1-(cyclopropylsulfonyl)piperidin-3-yl)methyl)-5-fluoropyrimidin-4-amine], the EC50 in assay [1] (setting [3]) was under 5 µM. In addition, in assay [2] (setting [4]), the IC50 was under 5 µM.
In the case of `COc1cccc(S(=O)(=O)N2CCC[C@H](CNc3nc(-c4c[nH]c5ncc(Cl)cc45)ncc3F)C2)c1` [Compound 62, (R)-2-(5-chloro-1H-pyrrolo[2,3-b]pyridin-3-yl)-5-fluoro-N-((1-(3-methoxyphenylsulfonyl)piperidin-3-yl)methyl)pyrimidin-4-amine], in assay [1] (setting [3]), the EC50 is under 5 µM. Also, in assay [2] (setting [4]), the IC50 was under 5 µM.
On to `O=S(=O)(c1ccc(F)cc1)N1CCC[C@H](CNc2nc(-c3c[nH]c4ncc(Cl)cc34)ncc2F)C1` [Compound 64, (R)-2-(5-chloro-1H-pyrrolo[2,3-b]pyridin-3-yl)-5-fluoro-N-((1-(4-fluorophenylsulfonyl)piperidin-3-yl)methyl)pyrimidin-4-amine], for which the EC50 in assay [1] (setting [3]) was under 5 µM. Also, in assay [2] (setting [4]), the IC50 fell in the range of 5 to 20 µM.
For `O=S(=O)(c1cccc(F)c1)N1CCC[C@H](CNc2nc(-c3c[nH]c4ncc(Cl)cc34)ncc2F)C1` [Compound 65, (R)-2-(5-chloro-1H-pyrrolo[2,3-b]pyridin-3-yl)-5-fluoro-N-((1-(3-fluorophenylsulfonyl)piperidin-3-yl)methyl)pyrimidin-4-amine] the same measures were under 5 µM and under 5 µM.
For `Cc1cccc(S(=O)(=O)N2CCC[C@H](CNc3nc(-c4c[nH]c5ncc(Cl)cc45)ncc3F)C2)c1` [Compound 66, (R)-2-(5-chloro-1H-pyrrolo[2,3-b]pyridin-3-yl)-5-fluoro-N-((1-(m-tolylsulfonyl)piperidin-3-yl)methyl)pyrimidin-4-amine] the same measures were under 5 µM and under 5 µM.
For `O=S(=O)(c1cccc(Br)c1)N1CCC[C@H](CNc2nc(-c3c[nH]c4ncc(Cl)cc34)ncc2F)C1` [Compound 67, (R)—N-((1-(3-bromophenylsulfonyl)piperidin-3-yl)methyl)-2-(5-chloro-1H-pyrrolo[2,3-b]pyridin-3-yl)-5-fluoropyrimidin-4-amine] the same measures were under 5 µM and under 5 µM.
Turning to `O=C(Oc1ccccc1)N1CCC[C@H](CNc2nc(-c3c[nH]c4ncc(Cl)cc34)ncc2F)C1` [Compound 68, (R)-phenyl 3-((2-(5-chloro-1H-pyrrolo[2,3-b]pyridin-3-yl)-5-fluoropyrimidin-4-ylamino)methyl)piperidine-1-carboxylate], in assay [1] (setting [6]), the 50% effective concentration (EC50) is under 5 µM. Also, the IC50 in assay [2] lay within 5 to 20 µM.
In the same order, the values of `COc1ccccc1OC(=O)N1CCC[C@H](CNc2nc(-c3c[nH]c4ncc(Cl)cc34)ncc2F)C1` [Compound 69, (R)-2-methoxyphenyl 3-((2-(5-chloro-1H-pyrrolo[2,3-b]pyridin-3-yl)-5-fluoropyrimidin-4-ylamino)methyl)piperidine-1-carboxylate] are under 5 µM and under 5 µM.
Regarding `O=C(Oc1ccccc1Cl)N1CCC[C@H](CNc2nc(-c3c[nH]c4ncc(Cl)cc34)ncc2F)C1` [Compound 70, (R)-2-chlorophenyl 3-((2-(5-chloro-1H-pyrrolo[2,3-b]pyridin-3-yl)-5-fluoropyrimidin-4-ylamino)methyl)piperidine-1-carboxylate], the EC50 in assay [1] (setting [6]) was under 5 µM. Besides, the IC50 in assay [2] was under 5 µM.
For `C=C(C)OC(=O)N1CCC[C@H](CNc2nc(-c3c[nH]c4ncc(Cl)cc34)ncc2F)C1` [Compound 74, (R)-prop-1-en-2-yl 3-((2-(5-chloro-1H-pyrrolo[2,3-b]pyridin-3-yl)-5-fluoropyrimidin-4-ylamino)methyl)piperidine-1-carboxylate], in assay [1] (setting [5]), the EC50 was under 5 µM. Besides, the IC50 in assay [2] was under 5 µM.
For `O=C(Nc1cccc(F)c1)N1CCC[C@H](CNc2nc(-c3c[nH]c4ncc(Cl)cc34)ncc2F)C1` [Compound 75, (R)-3-((2-(5-chloro-1H-pyrrolo[2,3-b]pyridin-3-yl)-5-fluoropyrimidin-4-ylamino)methyl)-N-(3-fluorophenyl)piperidine-1-carboxamide], the EC50 in assay [1] (setting [3]) is under 5 µM. In addition, in assay [2] (setting [4]), the half-inhibitory concentration (IC50) was under 5 µM.
For the compound `COc1cccc(NC(=O)N2CCC[C@H](CNc3nc(-c4c[nH]c5ncc(Cl)cc45)ncc3F)C2)c1` [Compound 76, (R)-3-((2-(5-chloro-1H-pyrrolo[2,3-b]pyridin-3-yl)-5-fluoropyrimidin-4-ylamino)methyl)-N-(3-methoxyphenyl)piperidine-1-carboxamide], the EC50 in assay [1] (setting [3]) is under 5 µM. In addition, in assay [2] (setting [4]), the IC50 was under 5 µM.
Consider `Cc1cccc(NC(=O)N2CCC[C@H](CNc3nc(-c4c[nH]c5ncc(Cl)cc45)ncc3F)C2)c1` [Compound 78, (R)-3-((2-(5-chloro-1H-pyrrolo[2,3-b]pyridin-3-yl)-5-fluoropyrimidin-4-ylamino)methyl)-N-m-tolylpiperidine-1-carboxamide], for which the EC50 in assay [1] (setting [3]) is under 5 µM. In assay [2] (setting [4]), the IC50 was under 5 µM.
